Read-outs that look alike come from different tables or passages of the source.
Key:
Hsp90α = settings: for plasma Hsp90α at baseline versus after sorafenib alone: day -14 versus day -1, 14 day run in of daily oral sorafenib
Experimental: Human and xenograft plasma samples of 10 μL were added to sample diluent buffer and assayed in duplicate in the antibody-coated 96-well plate. After incubation at room temperature for one hour, wells were washed 6 times with washing buffer. 100 uL HRP conjugate was added to wells and incubated for one hour. Wells were washed 6 times, 100 uL TMB substrate was added to each well, and the plate was incubated for 20 minutes. Absorbance was measured at 450 nm on a plate reader.

MEXF276L cells [1] = experiment: Immunofluorescence localization of Hsp90 isoforms α and β; type: cell-based, human; settings: sensitive melanoma cells exposed to 17AAG, time course
Experimental: (§1) Cells were treated at the respective concentrations that cause total growth inhibition (TGI) (Burger et al., 2005). […] Co-localization of proteins results in the occurrence of orange to yellow colors in merged pictures. Bar=15 μm.

MEXF276L xenografts = settings: tumor-bearing mice, MEXF276L and MEXF514L, 24, 48, 72 hrs after 60 mg/kg/d
Experimental: Approximately 100 μl blood was available through tail vein puncture, the 72 hr time point was collected by exsanguinations/cardiac puncture.

MEXF276L cells [2] = experiment: Cell cycle distribution, apoptotic sub G1 fraction; type: cell-based, human; settings: 17AAG at TGI
MEXF276L cells [3] = experiment: Hsp90 isoforms and MMP2 in serum-free conditioned medium, Western blot; type: cell-based, human
Experimental: In addition, levels of matrix metalloprotease 2 (MMP2, FIG. 3B), an extracellular client protein of Hsp90α were analyzed.

[4] = system: MEXF276L and MEXF514L cells; experiment: Hsp90 expression in whole cell lysates of 17AAG sensitive and resistant melanoma cell lines; type: cell-based, human; settings: 17AAG at TGI; responsive MEXF276L, not resistant MEXF514L
Experimental: as §1

MEXF276 xenograft model = settings: 60 mg/kg/day i.p. on days 1-5 and 8-12; cited from earlier work
[5] = nude mice, days 1-4, 15-18 i.p.; cited from earlier work
[6] = preclinical toxicology studies; cited from earlier work

Structure (SMILES): CNC(=O)c1cc(Oc2ccc(NC(=O)Nc3ccc(Cl)c(C(F)(F)F)c3)cc2)ccn1 [sorafenib]
- plasma Hsp90α at baseline versus after sorafenib alone (Hsp90α): little difference in plasma Hsp90α
- plasma Hsp90α at baseline versus after sorafenib alone (Hsp90α; listed as Bay 43-9006): no effects on Hsp90α

Structure (SMILES): C=CCNC1=C2C[C@@H](C)C[C@H](OC)[C@H](O)[C@@H](C)/C=C(\C)[C@H](OC(N)=O)[C@@H](OC)/C=C\C=C(/C)C(=O)NC(=CC1=O)C2=O [17AAG, 17-allylamino, 17-demethoxygeldanamycin]
- localization of Hsp90α and Hsp90β (MEXF276L cells [1]): Hsp90α is lost at 2-24 hrs
- plasma Hsp90α after treatment versus pre 17-AAG (MEXF276L xenografts): increase in plasma Hsp90α in most cases
- apoptotic cell debris (sub G1 fraction) compared to control cells (MEXF276L cells [2]): only seen at 48 hrs
- Hsp90α and Hsp90β detected in the medium (MEXF276L cells [3]): increased detection of Hsp90α but not Hsp90β in the medium
- form of extracellular MMP2 (MEXF276L cells [3]): shift of the extracellular localized MMP2 from the fully active 66 kd form to the 72 kd latent form
- cytoplasmic Hsp90 level [4]: loss of cytoplasmic Hsp90
- growth inhibition compared to control (MEXF276 xenograft model): 92%
- time of actual tumor remissions (MEXF276 xenograft model): 10 to 17 days
- tolerability (MEXF276 xenograft model): well tolerated (no animal death)
- evidence of clinical response in patients with increase in plasma Hsp90α (Hsp90α; after 17AAG administration, shrinkage in 2/3, CT attenuation consistent with tumor necrosis in 1 of 3): 3/3
- induction of plasma Hsp90α, pre (day -1) versus post (72 hrs, day 4) treatment (Hsp90α; cancer patients, p=0.0287): induction is significant
- patients with increase in plasma Hsp90α (Hsp90α; day four, 72 hrs after first 17AAG dose, after 14 day sorafenib run in): 3 of 7

Structure (SMILES): CN(C)/N=N/c1[nH]cnc1C(N)=O [DTIC]
- maximal tolerated dose [5]: 70 mg/kg/day

Structure (SMILES): COC1=C2C[C@@H](C)C[C@H](OC)[C@H](O)[C@@H](C)/C=C(\C)[C@H](OC(N)=O)[C@@H](OC)/C=C\C=C(/C)C(=O)NC(=CC1=O)C2=O [Geldanamycin]
- hepatotoxicity [6]: severe hepatotoxicity

Reference: patent US8580519B2, “Use of plasma HSP90 related to malignancy” (University of Maryland, Baltimore, priority 2006, dated 2013)
